The source of these data is US10421761B2, “Compounds for kinase modulation, and indications therefor” (Plexxikon Inc., priority 2013, dated 2019).

For test [1], the system named is IPC-298 (NRAS Q61L) cell line. The test is described as follows: IPC-298 P-ERK cell activation assay (AlphaScreen). The settings on record: Homo sapiens, P-ERK cell activation, IPC-298, read-out: Cell activity (EC50 μM) IPC-298_P-ERK. Format: cell-based, human. A digest of the protocol: (§1)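 Mouse B9 (HRAS-driven skin SCC) or human IPC-298 melanoma cells treated with an 8-point compound titration for one hour at 37° C., then lysed. ERK1/2 phosphorylation at Thr202/Tyr204 read by AlphaScreen with total-ERK and phospho-ERK antibodies.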
In general terms: In Alpha technology, singlet oxygen from a donor bead excites a nearby acceptor bead.

Test [2] has as its system A375 (BRAF V600E) cell line. In words: A375 P-ERK inhibition assay (AlphaScreen). The settings on record: Homo sapiens, A-375; A375_P-ERK. Format: cell-based, human. The gist of the method: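 A375 cells treated with 8-point compound titration for 1 h at 37° C, then lysed. ERK1/2 Thr202/Tyr204 phosphorylation measured by AlphaScreen, using biotinylated total-ERK antibody on donor beads and phospho-specific antibody on acceptor beads.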

The subject of test [3] is B9 (HRAS Q61L) cell line. The test is described as follows: B9 P-ERK cell activation assay (AlphaScreen). Format: cell-based, mouse. The settings on record: Mus musculus, P-ERK cell activation, B9, read-out: Cell activity (EC50 μM) B9_pERK. The gist of the method: as §1
Test [4] concerns the target T1, BRAF V600E (Homo sapiens, UniProt P15056, V600E).
T1 construct: purchased Upstate Biotechnology
In words: BRAF V600E biochemical kinase activity assay (AlphaScreen, biotin-MEK1 substrate). The settings on record: BRAF V600E biochemical inhibitory activity.

Where two headings read alike, the source gives them in different places. Some results are limits rather than exact numbers.

T1 sequence (P15056 whole entry V600E): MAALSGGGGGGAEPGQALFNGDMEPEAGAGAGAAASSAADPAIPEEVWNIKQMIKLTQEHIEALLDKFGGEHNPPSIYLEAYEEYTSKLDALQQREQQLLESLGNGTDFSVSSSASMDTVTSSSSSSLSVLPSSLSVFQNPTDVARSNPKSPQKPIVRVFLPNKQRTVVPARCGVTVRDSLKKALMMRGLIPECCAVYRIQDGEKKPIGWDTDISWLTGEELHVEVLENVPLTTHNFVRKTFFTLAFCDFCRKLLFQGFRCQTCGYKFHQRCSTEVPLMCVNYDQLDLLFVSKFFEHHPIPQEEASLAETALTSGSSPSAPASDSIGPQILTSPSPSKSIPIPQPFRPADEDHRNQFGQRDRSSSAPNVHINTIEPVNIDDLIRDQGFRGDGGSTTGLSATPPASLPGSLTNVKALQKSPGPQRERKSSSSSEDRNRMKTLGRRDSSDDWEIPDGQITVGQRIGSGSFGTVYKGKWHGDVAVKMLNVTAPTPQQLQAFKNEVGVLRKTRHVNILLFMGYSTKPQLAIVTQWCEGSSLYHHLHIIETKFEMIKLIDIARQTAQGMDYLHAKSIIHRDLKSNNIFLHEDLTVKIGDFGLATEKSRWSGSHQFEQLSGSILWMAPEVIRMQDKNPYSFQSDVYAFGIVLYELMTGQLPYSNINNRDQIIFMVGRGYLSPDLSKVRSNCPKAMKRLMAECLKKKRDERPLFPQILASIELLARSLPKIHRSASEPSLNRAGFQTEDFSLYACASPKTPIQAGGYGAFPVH

In the case of `COc1ncnc2[nH]cc(C(=O)c3cccc(NS(=O)(=O)N4CCCC4)c3F)c12` [P-2084, N-[2-fluoro-3-(4-methoxy-7H-pyrrolo[2,3-d]pyrimidine-5-carbonyl)phenyl]pyrrolidine-1-sulfonamide], the EC50 in test [1] (numeric bounds) and in test [3] (numeric bounds) was above 10 µM in each case. Besides, the IC50 in test [2] and in test [4] was 0.0001 to 1 µM each time.
As for `CCN(CC)S(=O)(=O)Nc1cc(Cl)cc(-c2cn(C(C)C)nc2-c2ccnc(NC[C@H](C)NC(=O)OC)n2)c1F` [P-2165, methyl N-[(1S)-2-[[4-[4-[5-chloro-3-(diethylsulfamoylamino)-2-fluoro-phenyl]-1-isopropyl-pyrazol-3-yl]pyrimidin-2-yl]amino]-1-methyl-ethyl]carbamate], the EC50 in test [1] (numeric bounds) and in test [3] (numeric bounds) was above 10 µM throughout. For the same molecule, the IC50 in test [2] and in test [4] was 0.0001 to 1 µM in each case.
`CCN(C)S(=O)(=O)Nc1cccc(C(=O)c2c[nH]c3ncnc(NCCCOC)c23)c1F` [P-2115, 5-[3-[[ethyl(methyl)sulfamoyl]amino]-2-fluoro-benzoyl]-4-(3-methoxypropylamino)-7H-pyrrolo[2,3-d]pyrimidine]: the EC50 in test [1] (numeric bounds) and in test [3] (numeric bounds) was above 10 µM in each case. Moreover, the IC50 in test [2] and in test [4] was 0.0001 to 1 µM each time.
For `CN(C)S(=O)(=O)Nc1cccc(-c2nc(C(C)(C)C)sc2-c2ccnc(N)n2)c1F` [P-2093, 5-(2-aminopyrimidin-4-yl)-2-tert-butyl-4-[3-(dimethylsulfamoylamino)-2-fluoro-phenyl]thiazole], the EC50 in test [1] (numeric bounds) and in test [3] (numeric bounds) was above 1 µM each time. Besides, the IC50 in test [2] and in test [4] was 0.0001 to 1 µM each time.
Regarding `CCN(C)S(=O)(=O)Nc1ccc(F)c(C(=O)c2c[nH]c3ncnc(NC(C)C)c23)c1F` [P-2117, 5-[3-[[ethyl(methyl)sulfamoyl]amino]-2,6-difluoro-benzoyl]-4-(isopropylamino)-7H-pyrrolo[2,3-d]pyrimidine], the concentration giving a half-maximal response (EC50) in test [1] (numeric bounds) and in test [3] (numeric bounds) was above 10 µM throughout. Also, the IC50 in test [2] and in test [4] was 0.0001 to 1 µM throughout.
On to `CCN(C)S(=O)(=O)Nc1cccc(C(=O)c2c[nH]c3ncnc(N[C@@H](C)C4CC4)c23)c1F` [P-2080, 4-[[(1S)-1-cyclopropylethyl]amino]-5-[3-[[ethyl(methyl)sulfamoyl]amino]-2-fluoro-benzoyl]-7H-pyrrolo[2,3-d]pyrimidine], for which the EC50 in test [1] (numeric bounds) and in test [3] (numeric bounds) was above 10 µM throughout. The IC50 in test [2] and in test [4] was 0.0001 to 1 µM in each case.
Consider `O=C(c1cc(Cl)cc(NS(=O)(=O)N2CC[C@@H](F)C2)c1F)c1c[nH]c2ncc(-c3cnc(C4CC4)nc3)cc12` [P-2174, (3R)—N-[5-chloro-3-[5-(2-cyclopropylpyrimidin-5-yl)-1H-pyrrolo[2,3-b]pyridine-3-carbonyl]-2-fluoro-phenyl]-3-fluoro-pyrrolidine-1-sulfonamide], for which the EC50 in test [1] (numeric bounds) and in test [3] (numeric bounds) was above 10 µM in each case. Besides, the IC50 in test [2] and in test [4] was 0.0001 to 1 µM each time.
With `CCCC(C)S(=O)(=O)Nc1ccc(F)c(C(=O)c2c[nH]c3nccc(OC)c23)c1F` (stereo not drawn) [Compound P-2009, N-[2,4-difluoro-3-(4-methoxy-1H-pyrrolo[2,3-b]pyridine-3-carbonyl)phenyl]pentane-2-sulfonamide], the EC50 in test [1] (numeric bounds) and in test [3] (numeric bounds) was above 10 µM throughout. Moreover, the figures for the IC50 in test [2] and in test [4] were 1 to 10 µM and 0.0001 to 1 µM, respectively.
For the molecule `CCN(C)S(=O)(=O)Nc1ccc(F)c(C(=O)c2c[nH]c3ncnc(N[C@H](C)C4CC4)c23)c1F` [P-2118, 4-[[(1R)-1-cyclopropylethyl]amino]-5-[3-[[ethyl(methyl)sulfamoyl]amino]-2,6-difluoro-benzoyl]-7H-pyrrolo[2,3-d]pyrimidine], the EC50 in test [1] (numeric bounds) and in test [3] (numeric bounds) was above 10 µM in each case. The IC50 in test [2] and in test [4] was 0.0001 to 1 µM in each case.
`CC(C)(C)c1nc(-c2cccc(NS(=O)(=O)N3CCCC3)c2F)c(-c2ncnc3[nH]cnc23)s1` [P-2125, N-[3-[2-tert-butyl-5-(9H-purin-6-yl)thiazol-4-yl]-2-fluoro-phenyl]pyrrolidine-1-sulfonamide]: the EC50 in test [1] (numeric bounds) is above 1 µM; in test [3] (numeric bounds) it was above 10 µM. Also, the IC50 in test [2] and in test [4] was 0.0001 to 1 µM throughout.
For the molecule `C[C@@H](Nc1ncnc2[nH]cc(C(=O)c3cccc(NS(=O)(=O)N4CCCC4)c3F)c12)C1CC1` [P-2094, N-[3-[4-[[(1R)-1-cyclopropylethyl]amino]-7H-pyrrolo[2,3-d]pyrimidine-5-carbonyl]-2-fluoro-phenyl]pyrrolidine-1-sulfonamide], the EC50 in test [1] (numeric bounds) and in test [3] (numeric bounds) was above 10 µM in each case. The IC50 in test [2] and in test [4] was 0.0001 to 1 µM in each case.
For the molecule `CC(C)(C)c1nc(-c2cccc(NS(=O)(=O)N3CC[C@@H](F)C3)c2F)c(-c2ccnc(N)n2)s1` [P-2129, (3R)-N-[3-[5-(2-aminopyrimidin-4-yl)-2-tert-butyl-thiazol-4-yl]-2-fluoro-phenyl]-3-fluoro-pyrrolidine-1-sulfonamide], the EC50 in test [1] (class symbols) and in test [3] (class symbols) was 0.0001 to 1 µM in each case. The IC50 in test [2] and in test [4] was 0.0001 to 1 µM in each case.
Turning to `CCN(CC)S(=O)(=O)Nc1ccc(F)c(C(=O)c2c[nH]c3nccc(Cl)c23)c1F` [Compound P-2011, 4-chloro-3-[3-(diethylsulfamoylamino)-2,6-difluoro-benzoyl]-1H-pyrrolo[2,3-b]pyridine], the EC50 in test [1] (numeric bounds) and in test [3] (numeric bounds) was above 10 µM throughout. Also, the IC50 was in the range of 1 to 10 µM in test [2] and 0.0001 to 1 µM in test [4].
For the molecule `O=C(c1cc(C(F)(F)F)cc(NS(=O)(=O)N2CCCC2)c1F)c1c[nH]c2ncc(-c3cnc(C4CC4)nc3)cc12` [P-2179, N-[3-[5-(2-cyclopropylpyrimidin-5-yl)-1H-pyrrolo[2,3-b]pyridine-3-carbonyl]-2-fluoro-5-(trifluoromethyl)phenyl]pyrrolidine-1-sulfonamide], the EC50 in test [1] (numeric bounds) and in test [3] (numeric bounds) was above 10 µM throughout. In addition, the IC50 in test [2] is above 10 µM; in test [4] it was 1 to 10 µM.
Turning to `COCCCNc1ncnc2[nH]cc(C(=O)c3cccc(NS(=O)(=O)N4CCCC4)c3F)c12` [P-2105, N-[2-fluoro-3-[4-(3-methoxypropylamino)-7H-pyrrolo[2,3-d]pyrimidine-5-carbonyl]phenyl]pyrrolidine-1-sulfonamide], the EC50 in test [1] (numeric bounds) and in test [3] (numeric bounds) was above 10 µM in each case. The half-inhibitory concentration (IC50) in test [2] and in test [4] was 0.0001 to 1 µM in each case.

As usually defined, the EC50 is the concentration that produces a half-maximal response. The IC50 is the point on the concentration scale where inhibition reaches its midpoint.
